Paper PMC10629583, “Specific inhibition of an anticancer target, polo-like kinase 1, by allosterically dismantling its mechanism of substrate recognition” (Proceedings of the National Academy of Sciences of the …, 2023)

What was measured:
[1] = Conversion of Allopole to Allopole-A in buffers ± GSH (LC-MS); assay type: physicochemical; conditions: room temperature, 1 h; for Compounds detected / Compounds detected, % of total / Compounds detected, pk area: 100 µM Allopole
Method: High-performance liquid chromatography (HPLC)/high-resolution mass spectrometry was used to determine the products derived from investigational drugs incubated under various conditions by measuring their exact masses. Thereafter, 20 μL aliquots of several drug preparations in either DMSO or aqueous reaction solutions were diluted 2:1 in ethanol, followed by centrifugation at 15,000 × g for 5 min. The supernatant was then injected on a Thermo Vanquish liquid chromatograph coupled to a Thermo Q Exactive Orbitrap mass spectrometer (Thermo Fisher Scientific). The conditions for the analysis are listed as follows.
The analytes were identified using the Dmass between the predicted and measured exact monoisotopic mass for the protonated molecular ions applied to the empirical formula algorithm in the Qual Browser application of the Xcalibur software (Themo Scientific). Selected ions from the base peak chromatogram were extracted for integration of peak areas. The relative amounts of each analyte to the sum total were calculated to estimate conversion of and prodrug under the specific conditions to breakdown products.
Table S2. Conversion of Allopole to Allopole-A under various buffer conditions, room
Buffers* Compounds detected
Allopole-A Allopole-A (-S) Allopole (-Cl) Allopole
* Buffer #1: 20 mM Tris (pH 8.0), 50 mM NaCl, 1 mM EDTA, 1% DMSO
Buffer #2: 1 x PBS (pH 7.4), 1 mM EDTA, 1% DMSO
Buffer #3: 20 mM HEPES (pH 7.0), 50 mM NaCl, 1 mM EDTA, 1% DMSO
Samples were prepared by incubating 100 µM of Allopole in the indicated buffer conditions in the
absence or presence of 5 mM GSH for 1 h at room temperature. Note that in the absence of GSH,

L363 cells = experiment: MTS cell viability assay, L363 cells; assay type: cell-based; conditions: 48 h treatment
Alpha2B = target: T1, Alpha2B (Homo sapiens, UniProt P18089); experiment: PDSP off-target binding screen; conditions: for inhibition at 10 µM: read-out: Primary screen AVE(%inhib)±SD; for Ki: read-out: Secondary screen Ki
T1 sequence (P18089 1-450): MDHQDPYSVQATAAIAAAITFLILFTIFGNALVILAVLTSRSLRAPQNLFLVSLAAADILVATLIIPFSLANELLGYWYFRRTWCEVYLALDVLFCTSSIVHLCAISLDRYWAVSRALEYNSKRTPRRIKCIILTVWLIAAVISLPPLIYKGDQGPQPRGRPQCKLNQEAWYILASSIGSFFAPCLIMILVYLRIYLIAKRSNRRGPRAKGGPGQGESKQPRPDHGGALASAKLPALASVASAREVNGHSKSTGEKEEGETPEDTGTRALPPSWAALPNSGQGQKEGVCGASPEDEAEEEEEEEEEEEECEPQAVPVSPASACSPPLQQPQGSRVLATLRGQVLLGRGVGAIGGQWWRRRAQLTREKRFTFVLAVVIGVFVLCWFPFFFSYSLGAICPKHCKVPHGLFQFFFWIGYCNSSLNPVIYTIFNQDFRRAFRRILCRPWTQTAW
From the text: (§1) PDSP no. Compound Interactions (Ki, µM)
(§2) 60477 Allopole-A None observed.
(§3) trigger a secondary screen at that receptor.

DOR = DOR (Homo sapiens, UniProt P41143); experiment: PDSP off-target binding screen; conditions: for inhibition at 10 µM: read-out: Primary screen AVE(%inhib)±SD; for Ki: read-out: Secondary screen Ki
DOR, sequence (P41143 whole entry): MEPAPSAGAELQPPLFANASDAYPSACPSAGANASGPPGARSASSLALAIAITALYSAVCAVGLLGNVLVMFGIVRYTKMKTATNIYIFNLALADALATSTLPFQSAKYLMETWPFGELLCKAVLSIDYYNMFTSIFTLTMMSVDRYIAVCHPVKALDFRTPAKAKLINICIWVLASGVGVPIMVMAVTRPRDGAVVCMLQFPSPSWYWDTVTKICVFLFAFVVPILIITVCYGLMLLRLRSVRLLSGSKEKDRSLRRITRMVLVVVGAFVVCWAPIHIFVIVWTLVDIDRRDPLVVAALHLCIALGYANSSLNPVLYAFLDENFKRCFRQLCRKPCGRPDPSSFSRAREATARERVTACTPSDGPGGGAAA
From the text: as §1, §2, §3

MOR = MOR (Homo sapiens, UniProt P35372); experiment: PDSP off-target binding screen; conditions: for inhibition at 10 µM: read-out: Primary screen AVE(%inhib)±SD; for Ki: read-out: Secondary screen Ki
MOR, sequence (P35372 whole entry): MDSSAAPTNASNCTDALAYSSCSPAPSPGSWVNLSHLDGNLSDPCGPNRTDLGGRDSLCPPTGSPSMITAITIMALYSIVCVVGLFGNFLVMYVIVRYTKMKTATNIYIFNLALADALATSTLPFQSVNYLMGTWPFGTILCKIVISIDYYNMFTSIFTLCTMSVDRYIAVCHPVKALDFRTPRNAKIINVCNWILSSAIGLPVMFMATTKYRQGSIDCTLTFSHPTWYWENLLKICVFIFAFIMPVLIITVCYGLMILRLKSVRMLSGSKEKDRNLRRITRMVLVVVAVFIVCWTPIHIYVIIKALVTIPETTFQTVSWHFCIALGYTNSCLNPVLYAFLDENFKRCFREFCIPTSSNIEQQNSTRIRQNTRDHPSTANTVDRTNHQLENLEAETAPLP
From the text: as §1, §2, §3

H1 = H1 (Homo sapiens, UniProt P35367); experiment: PDSP off-target binding screen; conditions: for inhibition at 10 µM: read-out: Primary screen AVE(%inhib)±SD; for Ki: read-out: Secondary screen Ki
H1, sequence (P35367 whole entry): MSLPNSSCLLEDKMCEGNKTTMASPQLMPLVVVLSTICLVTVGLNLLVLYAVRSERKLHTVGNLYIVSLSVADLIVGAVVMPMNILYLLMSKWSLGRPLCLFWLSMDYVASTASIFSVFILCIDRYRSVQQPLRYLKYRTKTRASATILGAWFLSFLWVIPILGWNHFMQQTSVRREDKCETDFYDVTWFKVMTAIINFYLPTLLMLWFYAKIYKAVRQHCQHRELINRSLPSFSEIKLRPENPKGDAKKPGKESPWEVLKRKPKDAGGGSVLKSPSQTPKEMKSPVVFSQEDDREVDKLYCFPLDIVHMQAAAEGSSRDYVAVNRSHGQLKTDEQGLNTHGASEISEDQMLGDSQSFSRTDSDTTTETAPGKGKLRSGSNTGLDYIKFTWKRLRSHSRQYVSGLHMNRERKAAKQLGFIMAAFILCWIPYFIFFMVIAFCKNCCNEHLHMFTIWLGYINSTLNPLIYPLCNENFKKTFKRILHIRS
From the text: as §1, §2, §3

Alpha2C = target: T2, Alpha2C (Homo sapiens, UniProt P18825); experiment: PDSP off-target binding screen; conditions: for inhibition at 10 µM: read-out: Primary screen AVE(%inhib)±SD; for Ki: read-out: Secondary screen Ki
T2 sequence (P18825 1-462): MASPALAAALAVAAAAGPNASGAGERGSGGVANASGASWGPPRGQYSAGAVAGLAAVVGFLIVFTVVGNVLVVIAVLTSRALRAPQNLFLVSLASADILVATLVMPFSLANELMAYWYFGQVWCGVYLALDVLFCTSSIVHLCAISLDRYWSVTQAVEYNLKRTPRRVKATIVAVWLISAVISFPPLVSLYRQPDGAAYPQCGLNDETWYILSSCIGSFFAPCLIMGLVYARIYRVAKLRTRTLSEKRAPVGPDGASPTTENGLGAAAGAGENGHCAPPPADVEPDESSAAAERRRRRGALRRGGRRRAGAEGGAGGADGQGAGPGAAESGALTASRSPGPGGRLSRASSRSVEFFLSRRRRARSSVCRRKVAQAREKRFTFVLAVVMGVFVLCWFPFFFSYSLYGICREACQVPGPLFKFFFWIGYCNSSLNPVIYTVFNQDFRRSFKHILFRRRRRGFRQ
From the text: as §1, §2, §3

Alpha1A = target: T3, Alpha1A (Homo sapiens, UniProt P35348); experiment: PDSP off-target binding screen; conditions: for inhibition at 10 µM: read-out: Primary screen AVE(%inhib)±SD; for Ki: read-out: Secondary screen Ki
T3 sequence (P35348 1-466): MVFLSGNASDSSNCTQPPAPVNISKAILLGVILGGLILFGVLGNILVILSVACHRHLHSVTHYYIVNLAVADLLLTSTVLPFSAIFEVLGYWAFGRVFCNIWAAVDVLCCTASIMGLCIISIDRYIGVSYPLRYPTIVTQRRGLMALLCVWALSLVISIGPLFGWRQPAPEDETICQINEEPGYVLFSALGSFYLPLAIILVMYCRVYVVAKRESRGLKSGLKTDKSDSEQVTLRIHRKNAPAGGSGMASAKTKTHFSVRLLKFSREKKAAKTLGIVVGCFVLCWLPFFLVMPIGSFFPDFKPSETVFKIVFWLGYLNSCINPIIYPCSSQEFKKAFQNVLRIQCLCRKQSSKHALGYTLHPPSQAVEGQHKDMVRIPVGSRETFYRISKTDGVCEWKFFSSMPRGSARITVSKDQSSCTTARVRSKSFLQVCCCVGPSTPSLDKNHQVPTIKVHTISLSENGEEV
From the text: as §1, §2, §3

5-HT1E = target: T4, 5-HT1E (Homo sapiens, UniProt P28566); experiment: PDSP off-target binding screen; conditions: for inhibition at 10 µM: read-out: Primary screen AVE(%inhib)±SD; for Ki: read-out: Secondary screen Ki
T4 construct: NIMH Psychoactive Drug Screening Program (UNC)
T4 sequence (P28566 whole entry): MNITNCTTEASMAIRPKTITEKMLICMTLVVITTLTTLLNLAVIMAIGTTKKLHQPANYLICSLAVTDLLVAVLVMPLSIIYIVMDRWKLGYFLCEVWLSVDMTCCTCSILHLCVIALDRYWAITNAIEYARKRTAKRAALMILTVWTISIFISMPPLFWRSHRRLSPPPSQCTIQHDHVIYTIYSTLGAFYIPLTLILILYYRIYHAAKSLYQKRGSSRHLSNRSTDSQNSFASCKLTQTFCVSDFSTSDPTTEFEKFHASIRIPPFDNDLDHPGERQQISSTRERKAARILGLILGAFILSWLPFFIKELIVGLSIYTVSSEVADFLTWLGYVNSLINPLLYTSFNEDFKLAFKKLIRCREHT
From the text: as §1, §2, §3

[2] = Buffer #1 (20 mM Tris pH 8.0), no GSH
[3] = Buffer #2 (1 x PBS pH 7.4), no GSH
[4] = Buffer #3 (20 mM HEPES pH 7.0), no GSH

| SMILES | Compounds detected [1, 2] | Compounds detected, % of total [1, 2] | Compounds detected, pk area [1, 2] | Compounds detected ([1]; Buffer #1 + 5 mM GSH) | Compounds detected, % of total ([1]; Buffer #1 + 5 mM GSH) | Compounds detected, pk area ([1]; Buffer #1 + 5 mM GSH) | Compounds detected [1, 3] | Compounds detected, % of total [1, 3] | Compounds detected, pk area [1, 3] | Compounds detected ([1]; Buffer #2 + 5 mM GSH) | Compounds detected, % of total ([1]; Buffer #2 + 5 mM GSH) | Compounds detected, pk area ([1]; Buffer #2 + 5 mM GSH) | Compounds detected [1, 4] | Compounds detected, % of total [1, 4] | Compounds detected, pk area [1, 4] | Compounds detected ([1]; Buffer #3 + 5 mM GSH) | Compounds detected, % of total ([1]; Buffer #3 + 5 mM GSH) | Compounds detected, pk area ([1]; Buffer #3 + 5 mM GSH) | inhibition at 10 µM (Alpha2B) | Ki (Alpha2B) | also measured |
| --- | --- | --- | --- | --- | --- | --- | --- | --- | --- | --- | --- | --- | --- | --- | --- | --- | --- | --- | --- | --- | --- |
| O=c1c2sc(Cl)cc2n2c(=S)[nH]nc2n1CC1CC1 [Allopole-A] | 1.3 µmol/L | 1.3% | 9.61E+06 | 95.4 µmol/L | 95.4% | 1.38E+09 | 0.8 µmol/L | 0.8% | 4.90E+06 | 77.9 µmol/L | 77.9% | 5.81E+08 | 1.9 µmol/L | 1.9% | 1.56E+06 | 66.9 µmol/L | 66.9% | 1.89E+08 | -6.4 ± 7.1% | > 10 µM | Cell efficacy (GI50) Mean ± SD (L363 cells): failed to induce any significant antiproliferation effect; Cell efficacy (GI50) Mean ± SD (L363 cells; listed as 19): N. S.; inhibition at 10 µM (DOR): -13.5 ± 6.8%; Ki (DOR): > 10 µM; inhibition at 10 µM (MOR): 30.8 ± 47.5%; Ki (MOR): > 10 µM; inhibition at 10 µM (H1): 11.5 ± 2.8%; Ki (H1): > 10 µM; inhibition at 10 µM (Alpha2C): 10.6 ± 4.2%; Ki (Alpha2C): > 10 µM; inhibition at 10 µM (Alpha1A): -9.4 ± 18%; Ki (Alpha1A): > 10 µM; inhibition at 10 µM (5-HT1E): 31.3 ± 7.6%; Ki (5-HT1E): > 10 µM |
| Cn1cnc([N+](=O)[O-])c1Sc1nnc2n(CC3CC3)c(=O)c3sc(Cl)cc3n12 [Allopole] | 97.9 µmol/L | 97.9% | 7.45E+08 | 0.1 µmol/L | 0.1% | 8.76E+05 | 97.6 µmol/L | 97.6% | 6.28E+08 | 0.0 µmol/L | 0.0% | 2.41E+03 | 93.1 µmol/L | 93.1% | 7.80E+07 | 0.0 µmol/L | 0.0% | 9.35E+04 | 8.3 ± 16.4% | > 10 µM | Unmasking of the prodrug by GSH (in words) ([1]; 5 mM GSH): completely unmask; Stability in buffer (in words) ([1]; absence of GSH): remains stable; GI50 (L363 cells; Homo sapiens, L-363, 48 h, read-out: Cell efficacy (GI50) Mean ± SD): 4.1 µM; inhibition at 10 µM (DOR): -1 ± 4.8%; Ki (DOR): > 10 µM; inhibition at 10 µM (MOR): 40.6 ± 51%; Ki (MOR): > 10 µM; inhibition at 10 µM (H1): 35.8 ± 11.9%; Ki (H1): > 10 µM; inhibition at 10 µM (Alpha2C): 6.4 ± 7.5%; Ki (Alpha2C): > 10 µM; inhibition at 10 µM (Alpha1A): 40.6 ± 10.5%; Ki (Alpha1A): > 10 µM; inhibition at 10 µM (5-HT1E): 22.2 ± 10.5%; Ki (5-HT1E): > 10 µM |
